Results reported in ChEMBL document CHEMBL3826912 (ACS Med Chem Lett, 2016).

How the values were obtained:
in vitro = conditions: human, MT2 cells
Description: Cytotoxicity against human MT2 cells

in vivo = conditions: rat, po, 5 mg/kg
Description: AUC (0 to 24 hrs) in rat at 5 mg/kg, po

[1] = Dissociation constant, pKa of the compound; type: physicochemical
Salmonella typhimurium = experiment: Mutagenicity in Salmonella typhimurium; type: toxicity, organism-based; conditions: salmonella enterica subsp. enterica serovar typhimurium
[2] = Half life in rat liver microsomes at 0.5 uM in presence of NADPH by LC-MS/MS analysis; type: ADME
[3] = AUCtotal in rat at 5 mg/kg administered via oral gavage by LC-MS/MS analysis; type: ADME, organism-based; set-up: dose 5 mg/kg, time AUCmax, route oral; conditions: in vivo
[4] = AUCtotal in mouse at 5 mg/kg administered via oral gavage by LC-MS/MS analysis; type: ADME, organism-based; set-up: dose 5 mg/kg, route oral, time AUCmax; conditions: in vivo
[5] = Half life in human liver microsomes at 0.5 uM in presence of NADPH by LC-MS/MS analysis; type: ADME
[6] = Oral bioavailability in rat at 5 mg/kg by LC-MS/MS analysis; type: ADME, organism-based; conditions: in vivo
[7] = Drug level in dog at 1.85 mg/kg administered via oral gavage after 24 hrs by LC-MS/MS analysis; type: ADME, organism-based, Canis lupus familiaris; conditions: in vivo, read-out: Drug uptake
[8] = Oral bioavailability in Cynomolgus monkey at 2 mg/kg by LC-MS/MS analysis; type: ADME, organism-based, Macaca fascicularis; conditions: in vivo
[9] = Drug level in Cynomolgus monkey at 2 mg/kg administered via oral gavage after 24 hrs by LC-MS/MS analysis; type: ADME, organism-based, Macaca fascicularis; conditions: in vivo, read-out: Drug uptake
[10] = Half life in iv dosed rat by LC-MS/MS analysis; type: ADME, organism-based; conditions: in vivo
[11] = Oral bioavailability in dog at 1.85 mg/kg by LC-MS/MS analysis; type: ADME, organism-based, Canis lupus familiaris; conditions: in vivo
[12] = Half life in iv dosed Cynomolgus monkey by LC-MS/MS analysis; type: ADME, organism-based, Macaca fascicularis; conditions: in vivo
[13] = Half life in monkey liver microsomes at 0.5 uM in presence of NADPH by LC-MS/MS analysis; type: ADME, Macaca mulatta; conditions: rhesus monkey
[14] = Half life in dog liver microsomes at 0.5 uM in presence of NADPH by LC-MS/MS analysis; type: ADME, Canis lupus familiaris
[15] = Drug level in rat at 5 mg/kg administered via oral gavage after 24 hrs by LC-MS/MS analysis; type: ADME, organism-based; conditions: in vivo, read-out: Drug uptake
[16] = AUCtotal in Cynomolgus monkey at 2 mg/kg administered via oral gavage by LC-MS/MS analysis; type: ADME, organism-based, Macaca fascicularis; set-up: dose 2 mg/kg, route oral, time AUCmax; conditions: in vivo
[17] = Oral bioavailability in mouse at 5 mg/kg by LC-MS/MS analysis; type: ADME, organism-based; conditions: in vivo
[18] = Half life in iv dosed dog by LC-MS/MS analysis; type: ADME, organism-based, Canis lupus familiaris; conditions: in vivo
[19] = Half life in iv dosed mouse by LC-MS/MS analysis; type: ADME, organism-based; conditions: in vivo
[20] = Protein binding in human serum by ultracentrifugation method; type: ADME; conditions: read-out: PB
[21] = AUCtotal in dog at 1.85 mg/kg administered via oral gavage by LC-MS/MS analysis; type: ADME, organism-based, Canis lupus familiaris; set-up: dose 1.85 mg/kg, time AUCmax, route oral; conditions: in vivo
[22] = Inhibition of CYP450 in human microsomes; type: ADME
[23] = Drug level in mouse at 5 mg/kg administered via oral gavage after 24 hrs by LC-MS/MS analysis; type: ADME, organism-based; conditions: in vivo, read-out: Drug uptake

Q: Which CC50 (in vitro) does the source give for `C=C(C)[C@@H]1CC[C@]2(C(=O)O)CC[C@]3(C)[C@H](CC[C@@H]4[C@@]5(C)CC=C(c6ccc(C(=O)O)cc6)C(C)(C)[C@@H]5CC[C@]43C)[C@@H]12` here?
A: The CC50 was 27.2 nM.

Q: What about the AUC(0-t) at 24 h (in vivo) of the same molecule?
A: Its AUC(0-t) at 24 h is 5.72 µM·h.

Q: For `C=C(C)[C@@H]1CC[C@]2(C(=O)NCCN(C)C)CC[C@]3(C)[C@H](CC[C@@H]4[C@@]5(C)CC=C(c6ccc(C(=O)O)cc6)C(C)(C)[C@@H]5CC[C@]43C)[C@@H]12`, which CC50 (in vitro) is on record?
A: The CC50 was 2.61 nM.

Q: What about the AUC(0-t) at 24 h (in vivo) of the same molecule?
A: Its AUC(0-t) at 24 h is 1.62 µM·h.

Q: Which CC50 (in vitro) does the source give for `C=C(C)[C@@H]1CC[C@]2(CNCCCN3CCS(=O)(=O)CC3)CC[C@]3(C)[C@H](CC[C@@H]4[C@@]5(C)CC=C(c6ccc(C(=O)O)cc6)C(C)(C)[C@@H]5CC[C@]43C)[C@@H]12` here?
A: The CC50 was 3.5 nM.

Q: What about the pKa [1] of the same molecule?
A: Its pKa is 4.5.

Q: And the AUC(0-t) at 24 h (in vivo)?
A: Its AUC(0-t) at 24 h is 1.71 µM·h.

Q: With `C=C(C)[C@@H]1CC[C@]2(CNCCN(C)C)CC[C@]3(C)[C@H](CC[C@@H]4[C@@]5(C)CC=C(c6ccc(C(=O)O)cc6)C(C)(C)[C@@H]5CC[C@]43C)[C@@H]12` as the molecule, how does the CC50 (in vitro) read?
A: The CC50 was 1.24 nM.

Q: And the AUC(0-t) at 24 h (in vivo)?
A: Its AUC(0-t) at 24 h is 0.153 µM·h.

Q: With `C=C(C)[C@@H]1CC[C@]2(CNC(C)C)CC[C@]3(C)[C@H](CC[C@@H]4[C@@]5(C)CC=C(c6ccc(C(=O)O)cc6)C(C)(C)[C@@H]5CC[C@]43C)[C@@H]12` as the molecule, how does the CC50 (in vitro) read?
A: The CC50 was 2.36 nM.

Q: Which CC50 (in vitro) does the source give for `C=C(C)[C@@H]1CC[C@]2(CNCCO)CC[C@]3(C)[C@H](CC[C@@H]4[C@@]5(C)CC=C(c6ccc(C(=O)O)cc6)C(C)(C)[C@@H]5CC[C@]43C)[C@@H]12` here?
A: Its CC50 is 8.48 nM.

Q: What about the AUC(0-t) at 24 h (in vivo) of the same molecule?
A: Its AUC(0-t) at 24 h is 4.98 µM·h.

Q: For `C=C(C)[C@@H]1CC[C@]2(CNCCCN3CCCC3=O)CC[C@]3(C)[C@H](CC[C@@H]4[C@@]5(C)CC=C(c6ccc(C(=O)O)cc6)C(C)(C)[C@@H]5CC[C@]43C)[C@@H]12`, which CC50 (in vitro) is on record?
A: Its CC50 is 5.8 nM.

Q: And the AUC(0-t) at 24 h (in vivo)?
A: Its AUC(0-t) at 24 h is 1.04 µM·h.

Q: Which CC50 (in vitro) does the source give for `C=C(C)[C@@H]1CC[C@]2(NCCN3CCS(=O)(=O)CC3)CC[C@]3(C)[C@H](CC[C@@H]4[C@@]5(C)CC=C(c6ccc(C(=O)O)cc6)C(C)(C)[C@@H]5CC[C@]43C)[C@@H]12` [BMS-955176] here?
A: Its CC50 is 9.2 nM.

Q: And the Activity (Salmonella typhimurium)?
A: Its Activity is “Non-toxic”.

Q: What about the half-life at 0.5 µM [2] of the same molecule?
A: The half-life at 0.5 µM was over 2 h.

Q: And the AUC [3]?
A: The AUC was 14.2 µM·h.

Q: And the AUC [4]?
A: Its AUC is 28.9 µM·h.

Q: And the half-life at 0.5 µM [5]?
A: Its half-life at 0.5 µM is over 2 h.

Q: What about the bioavailability [6] of the same molecule?
A: Its bioavailability is 26%.

Q: And the concentration at 24 h [7]?
A: The concentration at 24 h was 559 nM.

Q: What about the bioavailability [8] of the same molecule?
A: Its bioavailability is 3.9%.

Q: What about the concentration at 24 h [9] of the same molecule?
A: Its concentration at 24 h is 17.4 nM.

Q: What about the half-life [10] of the same molecule?
A: The half-life was 6.6 h.

Q: And the bioavailability [11]?
A: The bioavailability was 8.5%.

Q: What about the half-life [12] of the same molecule?
A: The half-life was 8.6 h.

Q: And the half-life at 0.5 µM [13]?
A: Its half-life at 0.5 µM is 0.2 h.

Q: And the half-life at 0.5 µM [14]?
A: The half-life at 0.5 µM was over 2 h.

Q: What about the concentration at 24 h [15] of the same molecule?
A: The concentration at 24 h was 128 nM.

Q: What about the AUC [16] of the same molecule?
A: The AUC was 0.995 µM·h.

Q: And the bioavailability [17]?
A: The bioavailability was 27%.

Q: And the half-life [18]?
A: The half-life was 31.7 h.

Q: What about the half-life [19] of the same molecule?
A: The half-life was 8.9 h.

Q: What about the fraction unbound [20] of the same molecule?
A: Its fraction unbound is under 0.16.

Q: And the AUC(0-t) at 24 h (in vivo)?
A: The AUC(0-t) at 24 h was 4.13 µM·h.

Q: And the AUC [21]?
A: Its AUC is 29.4 µM·h.

Q: What about the “inhibition (INH)” value [22] of the same molecule?
A: The value was “Not Active”.

Q: What about the concentration at 24 h [23] of the same molecule?
A: The concentration at 24 h was 256 nM.
